We go through five molecules from ChEMBL document CHEMBL4052776, “Discovery of 3-morpholino-imidazole[1,5-a]pyrazine BTK inhibitors for rheumatoid arthritis” (Bioorg Med Chem Lett, 2017).

The target in experiment [1] is Voltage-gated inwardly rectifying potassium channel KCNH2 (Homo sapiens, UniProt Q12809). Briefly: Inhibition of human ERG by [35S]-MK499 displacement or iKr channel assay.
Experiment [2] addresses T1, Tyrosine-protein kinase BTK (Homo sapiens, UniProt Q06187). Kind of experiment: Inhibition of recombinant full-length His6-tagged BTK (unknown origin) expressed in baculovirus infected Sf9 cells using biotinylated A5 peptide as substrate preincubated for 60 mins followed by substrate addition measured after 120 mins by LANCE TR-FRET assay.
Experiment [3] addresses T1, Tyrosine-protein kinase BTK. Kind of experiment: Inhibition of BTK in human PBMC assessed as reduction in anti-IgM-induced MIP1beta.
The target of experiment [4] is Tyrosine-protein kinase Blk (Homo sapiens, UniProt P51451). Briefly: Inhibition of BLK (unknown origin).
For experiment [5], the species on record is Homo sapiens. Kind of experiment: Selectivity ratio of IC50 for BLK (unknown origin) to IC50 for BTK (unknown origin).
The target in experiment [6] is T2, Cytoplasmic tyrosine-protein kinase BMX (Homo sapiens, UniProt P51813).
T2 sequence (P51813 whole entry): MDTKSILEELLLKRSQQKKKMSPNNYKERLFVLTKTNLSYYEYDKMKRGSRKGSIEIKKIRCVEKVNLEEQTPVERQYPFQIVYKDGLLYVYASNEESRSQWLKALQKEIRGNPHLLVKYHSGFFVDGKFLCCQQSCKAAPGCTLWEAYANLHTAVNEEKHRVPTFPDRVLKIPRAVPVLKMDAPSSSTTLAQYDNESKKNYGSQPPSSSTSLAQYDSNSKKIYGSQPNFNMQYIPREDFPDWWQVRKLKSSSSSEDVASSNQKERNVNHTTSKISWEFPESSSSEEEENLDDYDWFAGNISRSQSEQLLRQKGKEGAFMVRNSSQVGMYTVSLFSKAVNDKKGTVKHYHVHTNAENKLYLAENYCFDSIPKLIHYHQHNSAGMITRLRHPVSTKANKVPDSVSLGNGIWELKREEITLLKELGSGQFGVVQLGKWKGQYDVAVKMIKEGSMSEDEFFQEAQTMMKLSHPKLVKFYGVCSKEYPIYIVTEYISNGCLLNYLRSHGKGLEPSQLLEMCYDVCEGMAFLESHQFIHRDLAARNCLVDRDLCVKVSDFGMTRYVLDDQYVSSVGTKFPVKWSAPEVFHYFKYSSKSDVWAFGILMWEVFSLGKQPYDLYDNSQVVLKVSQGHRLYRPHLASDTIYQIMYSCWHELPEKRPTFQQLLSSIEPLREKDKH
Kind of experiment: Inhibition of BMX (unknown origin).

For experiment [7], the species on record is Homo sapiens. Briefly: Selectivity ratio of IC50 for BMX (unknown origin) to IC50 for BTK (unknown origin).
Experiment [8] has as its target Tyrosine-protein kinase CSK (Homo sapiens, UniProt P41240). Briefly: Inhibition of CSK (unknown origin).
The species entered for experiment [9] is Homo sapiens. Kind of experiment: Selectivity ratio of IC50 for CSK (unknown origin) to IC50 for BTK (unknown origin).
The target of experiment [10] is Receptor tyrosine-protein kinase erbB-4 (Homo sapiens, UniProt Q15303). Kind of experiment: Inhibition of ERBB4 (unknown origin).
Receptor tyrosine-protein kinase erbB-4, sequence (Q15303 whole entry): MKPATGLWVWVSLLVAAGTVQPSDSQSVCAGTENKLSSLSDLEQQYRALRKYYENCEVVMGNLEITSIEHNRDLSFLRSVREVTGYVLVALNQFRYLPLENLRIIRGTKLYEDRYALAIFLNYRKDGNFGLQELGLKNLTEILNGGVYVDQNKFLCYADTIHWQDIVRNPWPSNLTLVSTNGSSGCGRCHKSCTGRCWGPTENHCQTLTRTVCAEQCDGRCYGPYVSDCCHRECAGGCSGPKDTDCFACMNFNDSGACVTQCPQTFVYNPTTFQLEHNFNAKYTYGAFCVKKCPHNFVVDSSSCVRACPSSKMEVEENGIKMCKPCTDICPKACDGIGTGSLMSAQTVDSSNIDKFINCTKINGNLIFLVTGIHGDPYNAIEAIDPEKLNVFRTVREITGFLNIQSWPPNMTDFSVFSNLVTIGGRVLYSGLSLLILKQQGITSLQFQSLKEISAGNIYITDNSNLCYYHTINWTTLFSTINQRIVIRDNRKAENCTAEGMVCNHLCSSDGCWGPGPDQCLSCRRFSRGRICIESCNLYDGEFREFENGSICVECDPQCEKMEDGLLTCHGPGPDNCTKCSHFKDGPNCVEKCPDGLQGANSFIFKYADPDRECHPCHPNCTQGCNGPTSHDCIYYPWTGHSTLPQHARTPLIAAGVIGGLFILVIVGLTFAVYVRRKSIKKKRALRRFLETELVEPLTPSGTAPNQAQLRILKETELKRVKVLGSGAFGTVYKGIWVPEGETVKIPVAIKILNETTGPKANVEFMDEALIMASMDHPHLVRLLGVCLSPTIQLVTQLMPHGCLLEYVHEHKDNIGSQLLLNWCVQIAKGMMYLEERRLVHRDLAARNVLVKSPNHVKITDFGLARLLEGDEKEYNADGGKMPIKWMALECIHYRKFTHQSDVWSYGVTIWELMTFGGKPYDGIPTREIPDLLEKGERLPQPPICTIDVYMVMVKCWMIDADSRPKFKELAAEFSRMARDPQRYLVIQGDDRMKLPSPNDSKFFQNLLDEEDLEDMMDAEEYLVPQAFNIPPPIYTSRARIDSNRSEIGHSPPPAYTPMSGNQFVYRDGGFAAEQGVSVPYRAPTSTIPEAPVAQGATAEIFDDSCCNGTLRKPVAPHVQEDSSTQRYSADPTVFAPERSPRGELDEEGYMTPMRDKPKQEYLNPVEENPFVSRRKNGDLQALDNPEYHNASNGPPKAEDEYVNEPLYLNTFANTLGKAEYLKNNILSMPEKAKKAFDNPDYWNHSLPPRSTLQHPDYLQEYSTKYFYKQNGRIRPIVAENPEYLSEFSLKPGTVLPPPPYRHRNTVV
Experiment [11] is filed under the species Homo sapiens. Briefly: Selectivity ratio of IC50 for ERBB4 (unknown origin) to IC50 for BTK (unknown origin).
In experiment [12] the target is Tyrosine-protein kinase Fgr (Homo sapiens, UniProt P09769). Kind of experiment: Inhibition of FGR (unknown origin).
The species named for experiment [13] is Homo sapiens. Kind of experiment: Selectivity ratio of IC50 for FGR (unknown origin) to IC50 for BTK (unknown origin).
For experiment [14], the target named is Tyrosine-protein kinase FRK (Homo sapiens, UniProt P42685). Kind of experiment: Inhibition of FRK (unknown origin).
The species entered for experiment [15] is Homo sapiens. Briefly: Selectivity ratio of IC50 for FRK (unknown origin) to IC50 for BTK (unknown origin).
Experiment [16] has as its target Tyrosine-protein kinase Fyn (Homo sapiens, UniProt P06241). Kind of experiment: Inhibition of FYN (unknown origin).
For experiment [17], the species on record is Homo sapiens. Briefly: Selectivity ratio of IC50 for FYN (unknown origin) to IC50 for BTK (unknown origin).
For experiment [18], the target named is Tyrosine-protein kinase Lck (Homo sapiens, UniProt P06239). Kind of experiment: Inhibition of LCK (unknown origin).
Tyrosine-protein kinase Lck, sequence (P06239 whole entry): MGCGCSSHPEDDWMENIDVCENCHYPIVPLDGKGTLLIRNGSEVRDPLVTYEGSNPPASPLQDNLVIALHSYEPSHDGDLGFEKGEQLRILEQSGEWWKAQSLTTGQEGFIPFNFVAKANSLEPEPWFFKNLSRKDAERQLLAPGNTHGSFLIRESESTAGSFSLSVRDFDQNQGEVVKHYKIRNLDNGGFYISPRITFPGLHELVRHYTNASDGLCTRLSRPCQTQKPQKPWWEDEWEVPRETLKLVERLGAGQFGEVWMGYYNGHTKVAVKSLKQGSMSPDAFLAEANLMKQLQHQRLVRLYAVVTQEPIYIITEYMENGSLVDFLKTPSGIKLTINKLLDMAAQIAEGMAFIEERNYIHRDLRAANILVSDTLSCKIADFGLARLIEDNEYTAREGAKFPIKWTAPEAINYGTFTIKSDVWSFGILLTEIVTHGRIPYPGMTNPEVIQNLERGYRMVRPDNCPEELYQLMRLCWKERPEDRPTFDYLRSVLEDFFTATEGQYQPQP
The species entered for experiment [19] is Homo sapiens. Kind of experiment: Selectivity ratio of IC50 for LCK (unknown origin) to IC50 for BTK (unknown origin).
Experiment [20] deals with Tyrosine-protein kinase Lyn (Homo sapiens, UniProt P07948). Briefly: Inhibition of LYNB (unknown origin).
For experiment [21], the species on record is Homo sapiens. Briefly: Selectivity ratio of IC50 for LYNB (unknown origin) to IC50 for BTK (unknown origin).
The target of experiment [22] is Protein-tyrosine kinase 6 (Homo sapiens, UniProt Q13882). Kind of experiment: Inhibition of PTK6 (unknown origin).
Protein-tyrosine kinase 6, sequence (Q13882 whole entry): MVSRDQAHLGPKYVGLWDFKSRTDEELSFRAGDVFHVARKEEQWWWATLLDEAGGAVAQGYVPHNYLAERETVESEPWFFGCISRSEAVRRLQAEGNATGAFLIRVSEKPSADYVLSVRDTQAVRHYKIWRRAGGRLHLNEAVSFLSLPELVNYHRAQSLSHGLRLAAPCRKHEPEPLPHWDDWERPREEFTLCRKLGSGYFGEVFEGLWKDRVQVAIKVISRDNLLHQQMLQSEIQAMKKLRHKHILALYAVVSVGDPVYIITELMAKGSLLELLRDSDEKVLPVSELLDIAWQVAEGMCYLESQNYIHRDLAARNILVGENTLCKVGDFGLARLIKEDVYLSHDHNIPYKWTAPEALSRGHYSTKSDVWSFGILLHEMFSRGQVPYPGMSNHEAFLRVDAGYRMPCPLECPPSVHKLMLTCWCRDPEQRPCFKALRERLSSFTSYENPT
For experiment [23], the species on record is Homo sapiens. Briefly: Selectivity ratio of IC50 for PTK6 (unknown origin) to IC50 for BTK (unknown origin).
Experiment [24] deals with Proto-oncogene tyrosine-protein kinase Src (Homo sapiens, UniProt P12931). Briefly: Inhibition of SRC (unknown origin).
Proto-oncogene tyrosine-protein kinase Src, sequence (P12931 2-536 limits assumed): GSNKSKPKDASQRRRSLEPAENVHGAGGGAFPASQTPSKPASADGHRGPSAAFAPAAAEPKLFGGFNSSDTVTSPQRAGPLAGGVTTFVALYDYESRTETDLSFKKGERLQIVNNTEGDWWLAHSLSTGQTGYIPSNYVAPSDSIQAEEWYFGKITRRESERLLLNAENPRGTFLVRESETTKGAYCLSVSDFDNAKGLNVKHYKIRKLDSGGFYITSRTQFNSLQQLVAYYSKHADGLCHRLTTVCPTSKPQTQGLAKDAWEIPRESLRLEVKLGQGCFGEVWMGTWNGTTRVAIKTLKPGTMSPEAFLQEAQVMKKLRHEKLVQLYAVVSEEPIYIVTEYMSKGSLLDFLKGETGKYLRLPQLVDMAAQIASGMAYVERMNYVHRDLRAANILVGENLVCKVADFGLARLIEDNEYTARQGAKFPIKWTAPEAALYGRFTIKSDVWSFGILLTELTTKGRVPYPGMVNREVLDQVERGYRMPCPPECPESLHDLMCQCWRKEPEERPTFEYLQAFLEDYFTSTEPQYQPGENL
Experiment [25] is filed under the species Homo sapiens. Briefly: Selectivity ratio of IC50 for SRC (unknown origin) to IC50 for BTK (unknown origin).
The target in experiment [26] is Tyrosine-protein kinase Srms (Homo sapiens, UniProt Q9H3Y6). Kind of experiment: Inhibition of SRMS (unknown origin).
The species named for experiment [27] is Homo sapiens. Briefly: Selectivity ratio of IC50 for SRMS (unknown origin) to IC50 for BTK (unknown origin).
Experiment [28] addresses T3, Tyrosine-protein kinase Tec (Homo sapiens, UniProt P42680).
T3 sequence (P42680 whole entry): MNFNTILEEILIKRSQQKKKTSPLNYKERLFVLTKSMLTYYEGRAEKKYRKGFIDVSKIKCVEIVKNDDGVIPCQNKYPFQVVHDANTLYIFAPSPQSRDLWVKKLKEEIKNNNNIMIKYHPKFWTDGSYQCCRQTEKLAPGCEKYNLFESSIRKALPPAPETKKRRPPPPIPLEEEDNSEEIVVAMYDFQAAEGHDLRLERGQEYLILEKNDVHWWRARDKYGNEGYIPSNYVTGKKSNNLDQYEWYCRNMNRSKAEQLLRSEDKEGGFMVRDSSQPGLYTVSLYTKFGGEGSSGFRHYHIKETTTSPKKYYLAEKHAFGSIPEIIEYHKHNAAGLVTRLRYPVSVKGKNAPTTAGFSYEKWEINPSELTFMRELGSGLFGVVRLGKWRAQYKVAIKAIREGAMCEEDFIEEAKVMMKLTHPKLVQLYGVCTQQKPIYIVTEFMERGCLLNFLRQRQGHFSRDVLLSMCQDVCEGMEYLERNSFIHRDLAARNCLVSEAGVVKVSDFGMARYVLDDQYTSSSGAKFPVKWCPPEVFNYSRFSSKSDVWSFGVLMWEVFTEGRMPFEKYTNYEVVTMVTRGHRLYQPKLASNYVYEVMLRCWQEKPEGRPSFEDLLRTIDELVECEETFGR
Briefly: Inhibition of TEC (unknown origin).

The species entered for experiment [29] is Homo sapiens. Kind of experiment: Selectivity ratio of IC50 for TEC (unknown origin) to IC50 for BTK (unknown origin).
Experiment [30] has as its target T4, Tyrosine-protein kinase TXK (Homo sapiens, UniProt P42681).
T4 sequence (P42681 whole entry): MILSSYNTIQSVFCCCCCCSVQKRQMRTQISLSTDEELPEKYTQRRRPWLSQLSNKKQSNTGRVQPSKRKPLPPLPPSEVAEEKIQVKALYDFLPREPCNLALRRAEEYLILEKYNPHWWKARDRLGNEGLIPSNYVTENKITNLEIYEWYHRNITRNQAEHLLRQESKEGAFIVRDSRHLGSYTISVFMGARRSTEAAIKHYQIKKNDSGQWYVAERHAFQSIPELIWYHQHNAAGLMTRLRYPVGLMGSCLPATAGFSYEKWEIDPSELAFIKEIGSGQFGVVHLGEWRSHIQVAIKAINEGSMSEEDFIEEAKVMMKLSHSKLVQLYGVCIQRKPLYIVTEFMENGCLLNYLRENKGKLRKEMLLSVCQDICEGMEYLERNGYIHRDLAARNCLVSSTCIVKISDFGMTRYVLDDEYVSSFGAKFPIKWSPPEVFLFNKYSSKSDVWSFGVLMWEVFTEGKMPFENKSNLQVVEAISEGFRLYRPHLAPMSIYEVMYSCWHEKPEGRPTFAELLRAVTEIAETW
Kind of experiment: Inhibition of TXK (unknown origin).

For experiment [31], the species on record is Homo sapiens. Kind of experiment: Selectivity ratio of IC50 for TXK (unknown origin) to IC50 for BTK (unknown origin).
Experiment [32] concerns the target Tyrosine-protein kinase Yes (Homo sapiens, UniProt P07947). Kind of experiment: Inhibition of YES1 (unknown origin).
The species entered for experiment [33] is Homo sapiens. Briefly: Selectivity ratio of IC50 for YES1 (unknown origin) to IC50 for BTK (unknown origin).

SMILES strings stand for the structures.

Voltage-gated inwardly rectifying potassium channel KCNH2, sequence (Q12809 whole entry): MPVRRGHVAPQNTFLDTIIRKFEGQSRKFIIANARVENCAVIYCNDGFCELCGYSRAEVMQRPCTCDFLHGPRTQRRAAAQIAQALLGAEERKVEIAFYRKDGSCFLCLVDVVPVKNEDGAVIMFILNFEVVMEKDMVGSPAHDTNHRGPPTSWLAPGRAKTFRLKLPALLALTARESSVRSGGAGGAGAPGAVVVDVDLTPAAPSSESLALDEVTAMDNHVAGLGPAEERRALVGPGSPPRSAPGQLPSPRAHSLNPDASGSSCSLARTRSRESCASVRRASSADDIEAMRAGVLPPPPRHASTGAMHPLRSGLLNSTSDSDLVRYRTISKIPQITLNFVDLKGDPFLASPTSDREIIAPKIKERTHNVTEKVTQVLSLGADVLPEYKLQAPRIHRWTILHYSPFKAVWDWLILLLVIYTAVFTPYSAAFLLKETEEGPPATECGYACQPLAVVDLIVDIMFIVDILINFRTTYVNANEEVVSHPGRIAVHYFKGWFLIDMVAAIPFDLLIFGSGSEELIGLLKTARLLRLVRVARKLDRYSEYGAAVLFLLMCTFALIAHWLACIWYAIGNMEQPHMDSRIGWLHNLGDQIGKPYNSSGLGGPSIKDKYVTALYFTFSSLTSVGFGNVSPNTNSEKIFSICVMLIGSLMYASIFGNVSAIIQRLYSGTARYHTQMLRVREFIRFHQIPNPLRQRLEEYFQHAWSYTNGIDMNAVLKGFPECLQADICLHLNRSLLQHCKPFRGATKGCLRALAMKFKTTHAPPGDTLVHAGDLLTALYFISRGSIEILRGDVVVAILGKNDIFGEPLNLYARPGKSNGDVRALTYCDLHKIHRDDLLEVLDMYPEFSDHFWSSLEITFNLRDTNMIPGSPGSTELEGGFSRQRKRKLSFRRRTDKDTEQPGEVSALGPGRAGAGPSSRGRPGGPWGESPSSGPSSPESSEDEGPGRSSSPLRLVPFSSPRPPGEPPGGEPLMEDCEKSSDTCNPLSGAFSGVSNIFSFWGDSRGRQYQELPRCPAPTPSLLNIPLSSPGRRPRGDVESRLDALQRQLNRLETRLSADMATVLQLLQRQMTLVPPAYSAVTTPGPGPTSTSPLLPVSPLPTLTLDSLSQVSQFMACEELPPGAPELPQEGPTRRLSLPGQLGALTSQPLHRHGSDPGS
T1 sequence (Q06187 whole entry): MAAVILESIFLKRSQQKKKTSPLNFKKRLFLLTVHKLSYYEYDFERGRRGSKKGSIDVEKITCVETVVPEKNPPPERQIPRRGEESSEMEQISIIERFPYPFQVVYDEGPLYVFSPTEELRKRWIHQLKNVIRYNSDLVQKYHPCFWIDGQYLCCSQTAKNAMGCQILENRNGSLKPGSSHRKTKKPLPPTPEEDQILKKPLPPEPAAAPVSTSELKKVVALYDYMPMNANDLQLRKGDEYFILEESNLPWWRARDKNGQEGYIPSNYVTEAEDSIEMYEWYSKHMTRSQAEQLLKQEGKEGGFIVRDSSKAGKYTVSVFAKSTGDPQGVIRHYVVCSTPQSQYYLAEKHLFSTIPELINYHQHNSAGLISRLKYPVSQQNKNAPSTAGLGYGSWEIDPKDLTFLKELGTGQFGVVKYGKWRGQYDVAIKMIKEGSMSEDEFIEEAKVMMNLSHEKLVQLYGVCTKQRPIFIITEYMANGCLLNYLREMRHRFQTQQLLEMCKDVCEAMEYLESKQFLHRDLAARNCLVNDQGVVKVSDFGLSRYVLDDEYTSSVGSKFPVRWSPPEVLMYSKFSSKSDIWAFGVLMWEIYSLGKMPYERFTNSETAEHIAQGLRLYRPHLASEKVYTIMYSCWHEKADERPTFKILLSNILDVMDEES
Tyrosine-protein kinase CSK, sequence (P41240 whole entry): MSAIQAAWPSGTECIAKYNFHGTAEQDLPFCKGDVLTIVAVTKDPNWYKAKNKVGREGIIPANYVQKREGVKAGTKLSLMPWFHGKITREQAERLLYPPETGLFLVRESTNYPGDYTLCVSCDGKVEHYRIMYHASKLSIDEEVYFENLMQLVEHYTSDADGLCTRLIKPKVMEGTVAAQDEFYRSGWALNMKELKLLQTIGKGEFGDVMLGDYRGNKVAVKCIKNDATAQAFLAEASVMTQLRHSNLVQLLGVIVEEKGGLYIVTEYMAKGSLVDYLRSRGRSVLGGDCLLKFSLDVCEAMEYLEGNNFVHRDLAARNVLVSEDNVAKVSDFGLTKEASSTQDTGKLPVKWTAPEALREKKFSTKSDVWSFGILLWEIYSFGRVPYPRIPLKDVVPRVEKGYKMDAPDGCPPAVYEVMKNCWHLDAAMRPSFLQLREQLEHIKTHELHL

The molecule `CC(=O)N1CCC[C@@H](c2nc(-c3ccc(C(=O)Nc4cc(C(F)(F)F)ccn4)cc3F)c3c(N)nccn23)C1` had an IC50 in experiment [1] of 2400 nM.
In experiment [1], `CC1(C(=O)N2CCO[C@@H](c3nc(-c4ccc(C(=O)Nc5cc(C(F)(F)F)ccn5)cc4)c4c(N)nccn34)C2)COC1` returned an IC50 of 14400 nM.
Still for that read-out and setting: the result for `COCCC(=O)N1CCO[C@@H](c2nc(-c3ccc(C(=O)Nc4cc(C(F)(F)F)ccn4)cc3)c3c(N)nccn23)C1` reads 5800 nM; that for `CC1(C(=O)N2CC[C@@H](c3nc(-c4ccc(C(=O)Nc5cc(C(F)(F)F)ccn5)cc4)c4c(N)nccn34)C2)COC1`, 2500 nM.
With `Nc1nccn2c([C@@H]3CCCN(C4CCOCC4)C3)nc(-c3ccc(C(=O)Nc4cc(C(F)(F)F)ccn4)cc3F)c12`, the IC50 in experiment [2] was 0.8 to 0.83 nM; in experiment [3] it was 65 nM; in [1] it was 100 nM; in experiment [4], 29 nM; in experiment [6], 127 nM; in experiment [8], 455 nM. In addition, the IC50 in experiment [10] amounted to 59 nM; in experiment [12] it was 22 nM; in experiment [14], 85 nM; in [16] it was 105 nM; in experiment [18] it was 7 nM; in experiment [20], 115 nM. Further, the IC50 in [22] is 48 nM; in experiment [24], 77 nM; in experiment [26], 50 nM; in [28], 170 nM; in experiment [30], 231 nM; in experiment [32], 32 nM. Besides, the Ratio IC50 in experiment [5] was determined as 35; in experiment [7] it was 153; in [9] it was 548; in experiment [11], 71; in experiment [13] it was 26; in experiment [15], 102. Moreover, the Ratio IC50 turned out to be 127 in experiment [17]; 9 in [19]; 138 in experiment [21]; 58 in experiment [23]; 93 in experiment [25]; 60 in [27]. In addition, the Ratio IC50 in [29] amounted to 205; in experiment [31], 278; in [33] it was 38.
